Laboratory results taken from patent publication US7741348B2, “Bisheterocycle tandem compounds useful as antiviral agents, the uses thereof and the compositions comprising such compounds” (Shanghai Institute of Materia Medica, Chinese Academy of …, priority 2005, dated 2010).
Values after ≈ are worked out from the molar mass of the structure shown. Where two headings read alike, the source gives them in different places.

Tests used:
[1] = test system: Vero (African green monkey kidney) cells; experiment: 50% toxicity concentration in the anti-herpes virus screen (Vero cells); conditions: 50% toxity concentration, Table 3-1 (herpes virus screen, Vero cells)
influenza A virus = experiment: Anti influenza A virus activity, cytopathic effect (CPE) in MDCK cells; type: cell-based
Source text: (§1) 4. Screening of the samples for the anti-influenza virus A and B activity: MDCK (canine kidney) cells were used as the virus host to test the inhibition effect of the compounds of the present invention on the cytopathic effect (CPE) of the cells caused by the virus.

herpes virus I (HSV-I) = experiment: Anti herpes virus I activity, cytopathic effect in Vero cells; type: cell-based; conditions: read-out: Anti herpes virus I HSV-I (IC50)
Source text: (§2) 3. Screening of the compounds for the anti-herpes virus I and II activity: Vero (African green monkey kidney) cells were used as virus host to test the inhibition effect of the compounds of the present invention on the cytopathic effect of the Vero cells caused by Herpes virus I and II.

[2] = test system: MDCK (canine kidney) cells; experiment: 50% toxicity concentration in the anti-influenza screen (MDCK cells); type: cell-based; conditions: 50% toxity concentration, Table 3-2 (influenza screen, MDCK cells)
Source text: as §1

hepatitis B virus (HBV) [3] = experiment: HBV-DNA replication in HepG2.2.15 culture supernatant (fluorescent quantification PCR); type: cell-based; conditions: Hepatitis B virus; HepG2.2.15 supernatant, eighth day, fluorescent quantification PCR; read-out: DNA replication IC50
Source text: (§3) Hepatitis B virus (HBV) transgenic human hepatoma carcinoma cell, HepG2.2.15 cell line, can secrete hepatitis B virus particles (containing antigen and DNA) into supernatant when being cultured.
(§4) Under action of antiviral drugs, the contents of HBsAg, HBeAg and viral DNA secreted from cells into the supernatant were detected and are compared with the contents of control groups without drugs, so that the antiviral activity of the compounds of the present invention can be measured as well as the cytotoxic effect of compounds of the present invention. The value concentration of the compounds of the present invention which caused 50% of cells dead and was measured with MTT method was CC50; and the value concentration of the compounds of the present invention which inhibited the secretion of HBsAg and HBeAg detected by ELISA method and inhibited 50% of viral DNA replication detected by fluorescent quantification PCR method was IC50.
(§5) HepG2.2.15 cells were inoculated on a 96-well plate, and the compounds of the present invention were added next day. The medium and the compound solutions of the same concentration were renewed periodically. The culture supernatants were collected on the eighth day to be detected. MTT was added to the cells on the 96-well plate, and MTT dissolving liquid was added after 4 hours to be reacted overnight. OD570 was measured next day on microplate reader. And the cytotoxicity of the compounds of the present invention to the HepG2.2.15 cells, the effect of the compounds of the present invention on the growth of the cells, and the concentration of the compound of the present invention (CC50) causing 50% of the cells dead were estimated according to the OD values.
A suitable amount of culture supernatant was added into a same volume of virus extract solution, and was boiled after mixed uniformly, then centrifuged at 10000 rpm for 5 min under room temperature. A suitable amount of supernatant was collected for PCR amplification. Five HBV-DNA standard samples were used to set a standard curve. According to the obtained viral DNA replication value, the inhibition rates of HBV-DNA replication of the compound of the present invention at different concentrations were calculated, and then the half inhibition rates of the compounds were calculated to obtain IC50. For the samples that can not be calculated for IC50 value, they can be represented by ICX and given the corresponding concentration values.

[4] = Cytotoxicity to HepG2.2.15 cells (MTT method); type: cell-based; conditions: human, HepG2.2.15 cells (HBV-transgenic human hepatoma cells), 50% death concentration, eighth day
Source text: as §3, §4, §5

hepatitis B virus (HBV) [5] = experiment: HBeAg secretion in HepG2.2.15 culture supernatant (ELISA); type: cell-based; conditions: HepG2.2.15 supernatant, eighth day, read-out: HBeAg secreation IC50
Source text: as §3, §4, §5
(§6) HBsAg and HBeAg were detected with assaying kits (purchased from Sino-American biotechnological company). Samples were added to the coated strip plate, and the same amount of enzyme labeled conjugate was added, after reacting under 37° C. for 1 hour, the plate was washed 5 times. Colorant solutions A and B were added, and the reaction was stopped after 15 minutes, and OD450/630 was measured. The half inhibition rate IC50 of the sample for the HBV antigen was calculated according to the OD values.

hepatitis B virus (HBV) [6] = experiment: HBsAg secretion in HepG2.2.15 culture supernatant (ELISA); type: cell-based; conditions: HepG2.2.15 supernatant, eighth day, read-out: HBsAg secreation IC50
Source text: as §3, §4, §5, §6

herpes virus II (HSV-II) = experiment: Anti herpes virus II activity, cytopathic effect in Vero cells; type: cell-based; conditions: read-out: Anti herpes virus II HSV-II (IC50)
Source text: as §2

HIV-1 integrase = target: T1, HIV-1 integrase (Human immunodeficiency virus type 1 group M subtype B, UniProt P04585); experiment: HIV-1 integrase inhibition (ELISA, chain transfer); type: biochemical; conditions: enzyme inhibition
T1 construct: purified HIV-1 integrase
Method: 2. Screening of the compounds for the anti HIV-1 integrase activity: the synthesized 30 oligonucleotide (5′P-[…]-3′,3′-[…]-5′) was used as donor substrate, and the synthesized 20 oligonucleoside (5′-[…]-3′-biotin, biotin-3′-[…]-5′) was used as target substrate. On a 96-well plate, the donor substrate was added with purified HIV-1 integrase to conduct ELISA reaction. The product of chain transfer of target DNA was detected and stained in the biotin labeled alkaline phosphatase system, OD values were measured with microplate reader. Addition of the compounds of the present invention in the reaction system can be used to screen the inhibitor of the enzyme.

HIV-1 protease = HIV-1 protease (Human immunodeficiency virus type 1 group M subtype B, UniProt P04585); experiment: HIV-1 protease inhibition; type: biochemical
[7] = Human alphaherpesvirus 2, Vero cells, cytopathic effect

Compound | TC50 [1] [µg/mL] | IC50 (influenza A virus) [µg/mL] | TC50 [2] [µg/mL] | further results
COC(=O)c1nc(-c2csc([C@@H](NC(=O)C3CC3)C(C)C)n2)oc1C [Wang363.43-1] | 707.11 (≈ 1950 µM) | 3.97 (≈ 10.9 µM) | 500 (≈ 1380 µM) | IC50 (herpes virus I (HSV-I); Human alphaherpesvirus 1, Vero cells, cytopathic effect): 369 µg/mL (≈ 1020 µM)
COC(=O)c1nc(-c2csc([C@@H](NC(=O)c3cccs3)C(C)C)n2)oc1C [Wang405.49] | – | – | – | IC50 (hepatitis B virus (HBV) [3]): 76 µM; CC50 [4]: 154 µM; IC50 (hepatitis B virus (HBV) [5]): 46 µM; IC50 (hepatitis B virus (HBV) [6]): 63.5 µM
COC(=O)c1nc(-c2csc([C@@H](NC(=O)c3ccccc3F)C(C)C)n2)oc1C [Wang417.46-J] | – | > 86.2 | >1000 | CC50 [4]: 755 µM; IC50 (hepatitis B virus (HBV) [6]): 143 µM
COC(=O)c1nc(-c2csc([C@@H](NC(=O)c3cccc(F)c3)C(C)C)n2)oc1C [Wang417.46-P] | 198.43 (≈ 475 µM) | 0.9 (≈ 2.16 µM) | 422.43 (≈ 1010 µM) | IC50 (herpes virus II (HSV-II); [7]): 107 µg/mL (≈ 255 µM)
COC(=O)c1coc([C@H](C)NC(=O)c2nc(-c3csc([C@@H](NC(=O)C4CCCC4)C(C)C)n3)oc2C)n1 [Wang529.61-1] | 198.43 (≈ 375 µM) | 3.15 (≈ 5.95 µM) | 191.74 (≈ 362 µM) | CC50 [4]: 472 µM; IC50 (herpes virus II (HSV-II); [7]): 107 µg/mL (≈ 201 µM); IC50 (hepatitis B virus (HBV) [5]): 171 µM; IC50 (hepatitis B virus (HBV) [6]): 214 µM
COC(=O)c1nc(-c2csc([C@@H](NC(=O)c3ccccc3)C(C)C)n2)oc1C [Wang 399.46] | – | 1.14 (≈ 2.85 µM) | 166.67 (≈ 417 µM) | IC50 (HIV-1 integrase): 365 µM
COC(=O)c1nc(-c2csc([C@@H](NC(=O)COCc3ccccc3)C(C)C)n2)oc1C [Wang 443.52] | 168.24 (≈ 379 µM) | 1.29 (≈ 2.91 µM) | 165.86 (≈ 374 µM) | IC50 (herpes virus II (HSV-II); Human alphaherpesvirus 2, Vero): 78.8 µg/mL (≈ 178 µM); IC50 (herpes virus I (HSV-I); Human alphaherpesvirus 1, Vero): 107 µg/mL (≈ 240 µM)
COC(=O)c1coc([C@H](C)NC(=O)c2nc(-c3csc([C@@H](NC(=O)C4CC4)C(C)C)n3)oc2C)n1 [Wang 501.56-1] | 707.11 (≈ 1410 µM) | 1.18 (≈ 2.35 µM) | 303.69 (≈ 605 µM) | IC50 (herpes virus II (HSV-II); [7]): 293 µg/mL (≈ 585 µM)
COC(=O)c1coc([C@H](C)NC(=O)c2nc(-c3csc([C@@H](NC(=O)c4ccccc4)C(C)C)n3)oc2C)n1 [Wang 537.59] | – | 1.29 (≈ 2.4 µM) | >1000 | –
COC(=O)c1coc([C@H](C)NC(=O)c2nc(-c3csc([C@@H](NC(=O)C4CCCCC4)C(C)C)n3)oc2C)n1 [Wang 543.64-1] | – | 57.8 (≈ 106 µM) | 144.34 (≈ 266 µM) | –
COC(=O)c1coc([C@H](C)NC(=O)c2nc(-c3csc([C@@H](NC(=O)Cc4ccccc4)C(C)C)n3)oc2C)n1 [Wang 551.62] | – | 1.18 (≈ 2.14 µM) | 303.69 (≈ 551 µM) | –
COC(=O)c1coc([C@H](C)NC(=O)c2nc(-c3csc([C@@H](NC(=O)CC4=CCCCC4)C(C)C)n3)oc2C)n1 [Wang 555.65] | – | 44.5 (≈ 80 µM) | 577.35 (≈ 1040 µM) | –
COC(=O)c1nc(-c2csc([C@@H](NC(=O)c3csc([C@@H](NC(=O)OC(C)(C)C)C(C)C)n3)C(C)C)n2)oc1C [Wang 577.72] | 176.78 (≈ 306 µM) | – | – | IC50 (herpes virus II (HSV-II); [7]): 97.6 µg/mL (≈ 169 µM); IC50 (HIV-1 protease): 57.6 µM
COC(=O)c1nc(-c2csc([C@@H](NC(=O)C(C)(C)C)C(C)C)n2)oc1C [Yao379.47] | – | 97.8 (≈ 258 µM) | 577.35 (≈ 1520 µM) | –
COC(=O)c1nc(-c2csc([C@@H](NC(=O)CCC=C(C)C)C(C)C)n2)oc1C [Yao405.51] | – | 37 (≈ 91.3 µM) | 577.35 (≈ 1420 µM) | –
CCC(=O)N[C@H](c1nc(-c2nc(C(=O)OC)c(C)o2)cs1)C(C)C [Yao 351.42] | – | 259 (≈ 736 µM) | 577.35 (≈ 1640 µM) | –
